This is an account of results in patent US5326882A, “Chemiluminescent 3-(substituted Adamant-2'-Ylidene) 1,2-dioxetanes” (Tropix, Inc., priority 1992, dated 1994).

The target of assay [1] is T1, avidin-alkaline phosphatase conjugate (Bos taurus, UniProt P19111).
T1 construct: purchased Sigma, Inc., St. Louis, Mo
Description: Dot blot of biotinylated pBr 322 35-mer on nylon membrane, instant film (Example XIV). The note with it: 0.25 mM, pH 10, nylon membrane, FIG. 11. The method, then:
A strip of neutral BIODYNE A nylon membrane (Pall Corporation, Glen Cove, N.Y.) was dotted twice (side-by-side) with the following concentrations of biotinylated pBr 322 35-mer oligonucleotide probe (Synthetic Genetics, San Diego, Calif.):
Next, the membrane was blocked in 0.2% casein/0.1% Tween 20 detergent in aqueous phosphate buffered saline solution (PBS) for 1 hour, following which 1/5000 diluted avidin-alkaline phosphatase conjugate (Sigma, Inc., St. Louis, Mo.) in 0.2% casein in PBS was added. The membrane was then incubated for 30 minutes, washed twice (for 5 minutes each time) in 0.2% casein/0.1% Tween 20 detergent in PBS, washed four times (for 5 minutes each time) in 0.3% Tween 20 detergent in PBS, and twice (for 5 minutes each time) in aqueous 0.1M diethanolamine containing 1 mM magnesium chloride, pH 10.0.
The membrane was then cut up the middle to give two strips, each bearing one set of dots. One of the strips was incubated for 5 minutes in aqueous AMPPD solution (0.25 mM in 0.1M diethanolamine containing 1 mM magnesium chloride, pH 10), the other for 5 minutes in the corresponding chloroadamant-2'-ylidene compound (0.25 mM in the same buffer). The two strips were then placed in camera luminometers and exposed on Polaroid Type 612 instant black and white film.

The test system of assay [2] is alkaline phosphatase ("AP"). Conditions: cited from earlier work.

T1 sequence (P19111 20-506 limits assumed): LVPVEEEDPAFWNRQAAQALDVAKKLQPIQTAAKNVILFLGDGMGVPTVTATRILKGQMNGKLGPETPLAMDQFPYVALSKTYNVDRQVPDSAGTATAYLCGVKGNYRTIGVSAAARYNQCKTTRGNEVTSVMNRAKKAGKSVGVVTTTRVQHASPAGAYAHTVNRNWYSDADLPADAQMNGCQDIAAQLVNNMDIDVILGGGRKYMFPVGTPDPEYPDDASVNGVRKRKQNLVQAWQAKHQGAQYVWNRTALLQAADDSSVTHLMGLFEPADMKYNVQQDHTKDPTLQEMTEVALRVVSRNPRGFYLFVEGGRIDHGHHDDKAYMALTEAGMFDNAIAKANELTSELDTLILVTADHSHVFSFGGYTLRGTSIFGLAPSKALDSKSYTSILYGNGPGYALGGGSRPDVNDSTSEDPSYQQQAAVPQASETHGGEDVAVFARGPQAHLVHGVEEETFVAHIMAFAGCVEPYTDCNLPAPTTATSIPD
T1 sequence (P02701 25-152 partner): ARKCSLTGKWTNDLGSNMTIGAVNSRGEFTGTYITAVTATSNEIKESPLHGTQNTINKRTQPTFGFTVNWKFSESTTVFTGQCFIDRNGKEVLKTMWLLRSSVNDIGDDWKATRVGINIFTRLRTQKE

As for `COC1(c2cccc(OP(=O)(O)O)c2)OOC12C1CC3CC2CC(Cl)(C3)C1` (centres unmarked) [Cl-AMPPD, disodium 3-(4-methoxyspiro-[1,2-dioxetane-3,2'-(5'-chloro)tricyclo[3.3.1.1^3,7]decan]-4-yl) phenyl phosphate], in assay [1], the “chemiluminescence intensity as compared to AMPPD” value was “improved chemiluminescence intensity”.
Consider `COC1(c2cccc(OP(=O)(O)O)c2)OOC12C1CC3CC(C1)CC2C3` (centres unmarked) [AMPPD, 3-(4-methoxyspiro[1,2-dioxetane-3,2'-triyclo[3.3.1.1^3,7]decan]-4-yl)phenyl phosphate, reference compound], for which, in assay [2], the “moles whose phosphoryloxy group is cleaved by a single mole of alkaline phosphatase per second” value is recorded as 1,000-5,000 moles per second.
